# Data reported in EP2264010A1, “Hetarylamidines” (Bayer CropScience AG, priority 2009, dated 2010).
# Assays:
# [1] = logP by HPLC on reversed-phase columns (C 18), EEC Directive 79/831 Annex V.A8; type: physicochemical; details: c18 reversed-phase hplc, reversed-phase (C 18), read-out: log p
# Description: Die Messung der logP Werte erfolgte gemäß EEC Directive 79/831 Annex V.A8 durch HPLC (High Performance Liquid Chromatography) an reversed-phase Säulen (C 18), mit der nachfolgenden Methode: […]
# Tetranychus urticae = assay: Tetranychus test, OP-resistant (TETRUR spray treatment); type: in vivo; details: topical, bean leaf discs (Phaseolus vulgaris), read-out: Wirkung
# Description: Zur Herstellung einer zweckmäßigen Wirkstoffzubereitung vermischt man 1 Gewichtsteil Wirkstoff mit den angegebenen Mengen Lösungsmittel und Emulgator und verdünnt das Konzentrat mit emulgatorhaltigem Wasser auf die gewünschte Konzentration.
# Bohnenblattscheiben (Phaseolus vulgaris), die von allen Stadien der Gemeinen Spinnmilbe (Tetranychus urticae) befallen sind, werden mit einer Wirkstoffzubereitung der gewünschten Konzentration gespritzt.
# Nach der gewünschten Zeit wird die Wirkung in % bestimmt. Dabei bedeutet 100 %, dass alle Spinnmilben abgetötet wurden; 0 % bedeutet, dass keine Spinnmilben abgetötet wurden.
# VIOTR [2] = assay: Herbicidal activity, test type PO; type: in vivo; details: TEST-TYP PO, 80 G/HA
# STEME = assay: Herbicidal activity, test type PE; type: in vivo; details: TEST-TYP PE, read-out: herbizide Wirkung STEME
# AMARE [3] = assay: Herbicidal activity, test type PE; type: in vivo; details: Amaranthus retroflexus, TEST-TYP PE, read-out: herbizide Wirkung AMARE
# ALOMY = assay: Herbicidal activity, test type PE; type: in vivo; details: TEST-TYP PE, 320 G/HA
# AMARE [4] = assay: Herbicidal activity, test type PO; type: in vivo; details: TEST-TYP PO, 80 G/HA
# VERPE [5] = assay: Herbicidal activity, test type PO; type: in vivo; details: TEST-TYP PO, 80 G/HA
# MATIN = assay: Herbicidal activity, test type PE; type: in vivo; details: TEST-TYP PE, read-out: herbizide Wirkung MATIN
# SETVI = assay: Herbicidal activity, test type PE; type: in vivo; details: TEST-TYP PE, read-out: herbizide Wirkung SETVI
# VERPE [6] = assay: Herbicidal activity, test type PE; type: in vivo; details: TEST-TYP PE, read-out: herbizide Wirkung VERPE
# VIOTR [7] = assay: Herbicidal activity, test type PE; type: in vivo; details: TEST-TYP PE, read-out: herbizide Wirkung VIOTR
# CYPES = assay: Herbicidal activity, test type PE; type: in vivo; details: TEST-TYP PE, 320 G/HA
# LOLMU = assay: Herbicidal activity, test type PE; type: in vivo; details: TEST-TYP PE, read-out: herbizide Wirkung LOLMU
smiles,measurement,setting,value
CCN(C)C=Nc1ncc(Cl)cc1-c1ccc(C(F)(F)F)c(Cl)c1 [compound 24],chromatographic logP,[1],2.88
same,"mortality at 500 g/ha, 500 g/ha",Tetranychus urticae,> 80%
CCN(C)C=Nc1ncc(Cl)cc1-c1cccc(C(F)(F)F)c1 [compound 33],herbizide Wirkung VIOTR,VIOTR [2],90
same,pest or weed control at 320 g/ha,STEME,80%
same,pest or weed control at 320 g/ha,AMARE [3],100%
same,herbizide Wirkung ALOMY,ALOMY,80
same,herbizide Wirkung AMARE,AMARE [4],80
same,herbizide Wirkung VERPE,VERPE [5],80
same,pest or weed control at 320 g/ha,MATIN,80%
same,pest or weed control at 320 g/ha,SETVI,80%
same,pest or weed control at 320 g/ha,VERPE [6],100%
same,"mortality at 500 g/ha, 500 g/ha",Tetranychus urticae,> 80%
same,pest or weed control at 320 g/ha,VIOTR [7],100%
CCN(C=Nc1ncc(Cl)cc1-c1cccc(C(F)(F)F)c1)CC [compound 36],herbizide Wirkung CYPES,CYPES,100
same,pest or weed control at 320 g/ha,SETVI,90%
same,pest or weed control at 320 g/ha,VERPE [6],90%
same,pest or weed control at 320 g/ha,VIOTR [7],100%
same,pest or weed control at 320 g/ha,LOLMU,80%
FC(F)(F)c1cccc(-c2cc(Cl)cnc2N=CN2CCCC2)c1 [compound 38],herbizide Wirkung CYPES,CYPES,100
same,pest or weed control at 320 g/ha,AMARE [3],80%
same,pest or weed control at 320 g/ha,SETVI,90%
